Measured values: patent US12252503B2, “Cannabinoid derivatives” (priority 2019, dated 2025)

Assays:
[1] = molecular target: T1, human CB1 receptor (Homo sapiens, UniProt P21554); test: CB1 radioligand competitive binding assay ([3H]CP 55,940 displacement); details: for IC50: membranes of CHO-K1 cells expressing human CB1 receptor, 0.8 nM [3H]CP 55,940
T1 construct: host or cells: CHO-K1 (Chinese hamster ovary) cells, membrane preparation

[2] = molecular target: T2, human CB2 receptor (Homo sapiens, UniProt P34972); test: CB2 radioligand competitive binding assay ([3H]CP 55,940 displacement); details: for Selectivity CB2 (fold difference in selectivity between CB1 and CB2 binding): given in the column of the receptor with the higher binding affinity, 1.00 in both = about the same affinity; for IC50: membranes of CHO-K1 cells expressing human CB2 receptor, 0.6 nM [3H]CP55,940
T2 construct: host or cells: CHO-K1 (Chinese hamster ovary) cells, membrane preparation
T2 sequence (P34972 whole entry): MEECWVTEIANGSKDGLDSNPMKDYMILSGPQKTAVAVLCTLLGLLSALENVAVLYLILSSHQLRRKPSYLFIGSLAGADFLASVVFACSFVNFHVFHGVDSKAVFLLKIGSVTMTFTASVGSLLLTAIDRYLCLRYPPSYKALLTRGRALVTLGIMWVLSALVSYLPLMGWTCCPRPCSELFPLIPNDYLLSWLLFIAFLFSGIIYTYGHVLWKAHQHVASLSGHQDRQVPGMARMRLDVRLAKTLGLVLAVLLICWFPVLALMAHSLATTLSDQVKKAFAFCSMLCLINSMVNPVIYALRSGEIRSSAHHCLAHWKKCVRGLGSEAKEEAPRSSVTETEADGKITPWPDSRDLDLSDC
Description: The membranes were prepared from CHO-K1 (Chinese hamster ovary) cells stably transfected with the human CB2 receptor (Cat. #ES-111-C; Perkin Elmer, Boston, MA). The cells were grown adherently and maintained in Ham's F12 medium containing 10% fetal bovine serum (FBS), penicillin, streptomycin and geneticin (G418) at 37° C. in a humid atmosphere of 5% CO2 following the manufacturer's instructions.
For membrane preparation the cells were washed with PBS and scraped off the plates in cold homogenization buffer (25 mM HEPES (pH 7.4), 2 mM EDTA) containing protease inhibitor cocktail (Sigma Cat. #P8340). The cell suspension was homogenized with a Pro-PK-01200D Polytron Homogenizer (Pro Scientific) and then centrifuged for 30 min at 120,000×g. The supernatant was discarded and the pellet was re-suspended in the homogenization buffer and stored at −80° C. until the time of use.
In this experiment, 3H radiolabeled CP 55,940, i.e. [3H]CP 55,940 (Perkin Elmer, Boston, MA), was used as a radioligand for the CB2 receptor to determine the binding affinity of compounds for the CB2 receptor (Scheme 4; above).
The competition binding experiments (single dose and dose-response) were performed by incubating 0.6 nM of [3H]CP55,940 (specific activity 101 Ci/mmol, Perkin Elmer) and different concentrations of compounds disclosed herein with membranes prepared as above from CHO-K1 cells expressing human CB2 receptor (1 μg of protein/well), 50 mM Tris-HCl (pH 7.4), 5 mM MgCl2, 1 mM CaCl2, and 2 mg/mL BSA.
For the single dose experiments, the compound stocks (usually 10 mM in DMSO) were diluted to working stocks in the binding buffer to give the final compound concentrations of 10 μM and 1 μM. For the dose-response experiments the test compounds were sequentially diluted to provide the desired concentration range for the IC50 determination. In each case the compounds were pre-incubated with the membrane for 20 min, before adding the radioligand.
After incubation with the radioligand for 60 min at 37° C., the incubation was terminated by rapid filtration of assay mixture through MultiScreen®HTS^+ 96-well filter plates (Millipore, Cat. #MSFCNXB), pre-soaked for 60 min with 50 mM Tris-HCl (pH 7.4) containing 0.33% polyethylenimine (PEI). The nonspecific binding (NSB) was determined in the presence of 10 μM unlabelled CP55,940. After drying the filter plate at 50° C. for at least 60 min, the filter-bound radioactivity was determined by scintillation spectrometry using the 1450 MicroBeta Plate Counter (Perkin Elmer, Boston, MA). From the dose-response experiments, the IC50 values were determined (see Table 1, CB2 IC50).

[3] = molecular target: T1, human CB1 receptor; test: PathHunter β-Arrestin functional assay, CB1 receptor, agonist mode; type: cell-based; details: PathHunter CHO-K1 CNR1 β-Arrestin cells, normalized to CP55,940
[4] = molecular target: T1, human CB1 receptor; test: PathHunter β-Arrestin functional assay, CB1 receptor, antagonist mode; type: cell-based; details: range stated for the group of compounds, read-out: IC50 towards human CB1 receptor in antagonist mode

T1 sequence (P21554 whole entry): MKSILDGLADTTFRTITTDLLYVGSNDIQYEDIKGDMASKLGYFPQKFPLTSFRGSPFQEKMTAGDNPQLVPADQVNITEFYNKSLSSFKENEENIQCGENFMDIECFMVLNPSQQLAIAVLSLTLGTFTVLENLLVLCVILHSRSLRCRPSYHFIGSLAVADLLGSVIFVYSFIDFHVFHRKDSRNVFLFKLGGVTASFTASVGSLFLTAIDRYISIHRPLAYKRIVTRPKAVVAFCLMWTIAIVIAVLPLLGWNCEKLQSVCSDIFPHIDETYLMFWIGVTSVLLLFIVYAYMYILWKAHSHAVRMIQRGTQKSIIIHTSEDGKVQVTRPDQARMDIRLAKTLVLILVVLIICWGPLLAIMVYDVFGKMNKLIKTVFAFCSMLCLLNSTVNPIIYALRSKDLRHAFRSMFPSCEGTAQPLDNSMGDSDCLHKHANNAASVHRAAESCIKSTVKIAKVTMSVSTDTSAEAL

Row | Compound | IC50 [1] [nM] | Selectivity CB2 (fold difference in selectivity between CB1 and CB2 binding) [2] [fold] | IC50 [2] [nM] | Selectivity CB1 (fold difference in selectivity between CB1 and CB2 binding) ([1]; given in the column of the receptor with the higher binding affinity, 1.00 in both = about the same affinity) [fold] | activity towards the human CB1 receptor in agonist mode [3] | IC50 [4] [nM]
1 | CCCCCc1cc(OP(=O)(OCC)c2ccccc2)c(-c2cccc(C)c2)c(OP(=O)(OCC)c2ccccc2)c1 (stereo not drawn) [34′a, diethyl (3′-methyl-4-pentyl-[1,1′-biphenyl]-2,6-diyl) bis(phenylphosphonate)] | 1000 to 4990 | 1.95 | 1000 to 4990 |  |  | 
2 | CCCCCc1cc(O)c(C2C=C(C)CCC2)c(OP(=O)(Cc2ccccc2)OC)c1 (stereo not drawn) [Example 4c, 6-hydroxy-5′-methyl-4-pentyl-1′,2′,3′,4′-tetrahydro-[1,1′-biphenyl]-2-yl methyl benzylphosphonate] | 1000 to 4990 | 1.54 | 1000 to 4990 |  |  | 
3 | C=C(C)C1CCC(C)=CC1c1c(O)cc(CCCCC)cc1OP(=O)(Cc1ccccc1)OC (stereo not drawn) [Example 4d, 6-hydroxy-5′-methyl-4-pentyl-2′-(prop-1-en-2-yl)-1′,2′,3′,4′-tetrahydro-[1,1′-biphenyl]-2-yl methyl benzylphosphonate] | < 500 | 1.00 | < 500 | 1.00 | minimal to no activity | 780 to 3000
4 | CCCCCc1cc(O)c(-c2cccc(C)c2)c(OP(=O)(OCC)c2ccccc2)c1 (stereo not drawn) [Example 34a, ethyl (6-hydroxy-3′-methyl-4-pentyl-[1,1′-biphenyl]-2-yl) phenylphosphonate] | 1000 to 4990 | 10.26 | < 500 |  |  | 
5 | CCCCCc1cc(O)c(C2C=C(C)CCC2)c(OP(=O)(OCC)c2ccccc2)c1 (stereo not drawn) [Example 34c, ethyl (6-hydroxy-5′-methyl-4-pentyl-1′,2′,3′,4′-tetrahydro-[1,1′-biphenyl]-2-yl) phenylphosphonate] | 1000 to 4990 | 1.69 | 1000 to 4990 |  |  | 
6 | CCCCCc1cc(O)c(-c2cccc(C)c2)c(OP(=O)(Cc2ccccc2)OCC)c1 (stereo not drawn) [Example 35a, ethyl (6-hydroxy-3′-methyl-4-pentyl-[1,1′-biphenyl]-2-yl) benzylphosphonate] |  |  | 1000 to 4990 |  |  | 
7 | CCCCCc1cc(O)c(C2C=C(C)CCC2)c(OP(=O)(Cc2ccccc2)OCC)c1 (stereo not drawn) [Example 35c, ethyl (6-hydroxy-5′-methyl-4-pentyl-1′,2′,3′,4′-tetrahydro-[1,1′-biphenyl]-2-yl) benzylphosphonate] | ≥ 5000 | 3.25 | 1000 to 4990 |  |  | 
8 | CCCCCCC(C)(C)c1cc(O)c(C2C=C(C)CCC2)c(OP(=O)(OC)c2ccccc2)c1 (stereo not drawn) [Example 37c, 6-hydroxy-5′-methyl-4-(2-methyloctan-2-yl)-1′,2′,3′,4′-tetrahydro-[1,1′-biphenyl]-2-yl methyl phenylphosphonate] |  |  |  |  | minimal to no activity | 780 to 3000
9 | C=C(C)C1CCC(C)=CC1c1c(O)cc(C(C)(C)CCCCCC)cc1OP(=O)(OC)c1ccccc1 (stereo not drawn) [Example 37d, 6-hydroxy-5′-methyl-4-(2-methyloctan-2-yl)-2′-(prop-1-en-2-yl)-1′,2′,3′,4′-tetrahydro-[1,1′-biphenyl]-2-yl methyl phenylphosphonate] | 500 to 990 | 2.02 | < 500 |  | minimal to no activity | 780 to 3000
10 | CCCCCCC(C)(C)c1cc(O)c(C2C=C(C)CCC2)c(OP(=O)(Cc2ccccc2)OC)c1 (stereo not drawn) [Example 38c, 6-hydroxy-5′-methyl-4-(2-methyloctan-2-yl)-1′,2′,3′,4′-tetrahydro-[1,1′-biphenyl]-2-yl methyl benzylphosphonate] | 1000 to 4990 | 4.96 | 500 to 990 |  | minimal to no activity | 780 to 3000
11 | C=C(C)C1CCC(C)=CC1c1c(O)cc(C(C)(C)CCCCCC)cc1OP(=O)(Cc1ccccc1)OC (stereo not drawn) [Example 38d, 6-hydroxy-5′-methyl-4-(2-methyloctan-2-yl)-2′-(prop-1-en-2-yl)-1′,2′,3′,4′-tetrahydro-[1,1′-biphenyl]-2-yl methyl benzylphosphonate] | 500 to 990 | 1.82 | < 500 |  | minimal to no activity | 780 to 3000
12 | C=C(C)C1CCC(C)=CC1c1c(O)cc(C(C)(C)CCCCCC)cc1OP(=O)(Cc1ccccc1)OCC (stereo not drawn) [Example 39d, ethyl (6-hydroxy-5′-methyl-4-(2-methyloctan-2-yl)-2′-(prop-1-en-2-yl)-1′,2′,3′,4′-tetrahydro-[1,1′-biphenyl]-2-yl) benzylphosphonate] | 500 to 990 | 1.10 | 500 to 990 |  |  | 
